The term ED50 denotes the dose that gives a 50% effect, or the effect in half of the subjects.

Where a name gives a salt, the structure may show the parent alone. Read-outs that look alike come from different tables or passages of the source.

These results are taken from patent US4224329A, “2-Substitute d-trans-5-aryl-2,3,4,4a,5,9b-hexahydro-1H-pyrido[4,3-b]indoles” (Pfizer Inc., priority 1979, dated 1980).

The test system of the assay is Amphetamine Stereotypy. Nature of the assay: Antagonism of Amphetamine Stereotypy in Rats (ED50 for blocking characteristic amphetamine cage movement). The class given is in vivo. To be noted: for ED50: Rattus norvegicus. On the procedure: The effects of the compounds of the present invention on prominent amphetamine-induced symptoms were studied in rats by a rating scale modeled after the one reported by Quinton and Halliwell, and Weissman. Groups of five rats were placed in a covered plastic cage measuring approximately 26 cm.×42 cm.×16 cm. […] They were then treated 1, 5 and 24 hrs. later with d-amphetamine sulfate, 5 mg./kg. intraperitoneally (i.p.). […] On the basis of dose-response data after amphetamine it was possible to determine the effective dose of the compound necessary to antagonize or block the characteristic amphetamine behavior of cage movement for fifty percent of the rats tested (ED50). The time of rating chosen coincides with the peak action of amphetamine which is 60-80 min. after treatment with this agent.
Employing the above-described procedure, the following 4a,9b-trans compounds were tested for their ability to block the behavior effects of amphetamine, the results being reported as the ED50 in mg./kg. at the indicated times: [drawing 30]
A. The following results were obtained on the mixture of diastereomers for those compounds wherein R contains a secondary alcohol group and on the single diastereomer of the other 4a, 9b-trans hexahydro-pyrido-indoles.
B. The results of tests in which compounds of the invention reported in Part A, above are compared with the corresponding δ-substituted-5-aryl-1,2,3,4-tetrahydropyrido[4,3-b]indoles of U.S. Pat. No. 4,001,263 are summarized below. For each pair the results obtained on the prior art compound (a) are given first and the results for the compound of the invention (b) are given second. Where indicated the test compound was also administered orally (p.o.) and tests were carried out for 48 hours.
C. […] In each case the compounds are of the formula
The tests were carried out for 72 hours.

The mark [1] stands for this setting: ip, 1 h, i.p., Part B, read-out: ED50, 1 Hr.
Where [2] appears, read: ip, 5 h, i.p., Part B, read-out: ED50, 5 Hrs.
Where [3] appears, read: ip, 24 h, i.p., Part B, read-out: ED50, 24 Hrs.
[4] abbreviates: sc, 1 h, s.c., Part A, read-out: ED50, 1 Hr.
Where [5] appears, read: sc, 5 h, s.c., Part A, read-out: ED50, 5 Hr.
Where [6] appears, read: sc, 24 h, s.c., Part A, read-out: ED50, 24 Hrs.
[7] abbreviates: po, 1 h, p.o., Part B, read-out: ED50, 1 Hr.
Setting [8] is: po, 5 h, p.o., Part B, read-out: ED50, 5 Hrs.
Where [9] appears, read: po, 24 h, p.o., Part B, read-out: ED50, 24 Hrs.

As to `OC(CCCN1CC[C@H]2[C@H](C1)c1ccccc1N2c1ccccc1)c1ccccc1` (relative stereo), the ED50 under setting [1] lay in the range of 0.032 to 0.1 mg/kg; the ED50 under setting [2] was in the range of 0.032 to 0.1 mg/kg; the ED50 under setting [3] was in the range of 0.1 to 0.32 mg/kg; the median effective dose (ED50) under setting [4] lay in the range of 0.032 to 0.1 mg/kg; the 50% effective dose (ED50) under setting [5] is 0.032 to 0.1 mg/kg; the ED50 under setting [6] was 0.1 to 0.32 mg/kg.
As for `OC(CCCN1CC[C@H]2[C@H](C1)c1ccccc1N2c1ccccc1)c1ccc(F)cc1` (relative stereo), the median effective dose (ED50) was in the range of 0.1 to 0.32 mg/kg under setting [4], 0.1 to 0.32 mg/kg under setting [5] and 0.1 to 0.32 mg/kg under setting [6].
In the case of `O=C(CCCN1CC[C@H]2[C@H](C1)c1ccccc1N2c1ccccc1)c1ccc(F)cc1` (relative stereo), the 50% effective dose (ED50) is, setting by setting: under setting [4], roughly 0.32 mg/kg; under setting [5], 0.1 to 0.32 mg/kg; under setting [6], roughly 0.32 mg/kg.
Regarding `OC(CCCN1CC[C@H]2[C@H](C1)c1cc(F)ccc1N2c1ccc(F)cc1)c1ccccc1` (relative stereo), the median effective dose (ED50) is, setting by setting: under setting [4], 0.1 to 0.32 mg/kg; under setting [5], 0.1 to 0.32 mg/kg; under setting [6], less than 0.32 mg/kg.
For the compound `O=C(CCCN1CC[C@H]2[C@H](C1)c1cc(F)ccc1N2c1ccc(F)cc1)c1ccc(F)cc1` (relative stereo), the median effective dose (ED50) by setting is: under setting [1], less than 1 mg/kg; under setting [2], less than 1 mg/kg; under setting [3], less than 1 mg/kg; under setting [4], less than 1 mg/kg; under setting [5], less than 1 mg/kg; under setting [6], less than 1 mg/kg.
For `c1ccc(CCCN2CC[C@H]3[C@H](C2)c2ccccc2N3c2ccccc2)cc1` (relative stereo) [R = C6 H5 (CH2)3, reference compound], the ED50 by setting is: under setting [4], 3.2 to 10 mg/kg; under setting [5], 3.2 to 10 mg/kg; under setting [6], greater than 10 mg/kg.
For the compound `c1ccc(CN2CC[C@H]3[C@H](C2)c2ccccc2N3c2ccccc2)cc1` (relative stereo) [R = C6 H5 CH2, dl-trans-2-benzyl-2,3,4,4a,5,9b-hexahydro-5-phenyl-1H-pyrido[4,3-b]indole Hydrochloride, reference compound], the ED50 under setting [4] was roughly 10 mg/kg, the ED50 under setting [5] is 3.2 to 32 mg/kg and the median effective dose (ED50) under setting [6] is greater than 3.2 mg/kg.
For `c1ccc(N2c3ccccc3[C@H]3CNCC[C@@H]32)cc1` (relative stereo) [R = H, dl-trans-5-Phenyl-2,3,4,4a,5,9b-hexahydro-1H-pyrido[4,3-b]indole, reference compound], the ED50 is, setting by setting: (sc, 1 h, read-out: ED50, 1 Hr.) 3.2 to 32 mg/kg; (sc, 5 h, read-out: ED50, 5 Hr.) greater than 3.2 mg/kg; (sc, 24 h, read-out: ED50, 24 Hrs.) greater than 32 mg/kg.
With `OC(CCCN1CC[C@H]2[C@@H](C1)c1ccccc1N2c1ccccc1)c1ccc(F)cc1` (relative stereo) [corresponding 4a, 9bcis analog, reference compound], the ED50 under setting [4] turned out to be 56 mg/kg.
Turning to `OC(CCCN1CC[C@H]2[C@H](C1)c1cc(F)ccc1N2c1ccc(F)cc1)c1ccc(F)cc1` (relative stereo) [drawing 37, dl-trans-8-Fluoro-5-(p-fluorophenyl)-2-[4-hydroxy-4-(p-fluorophenyl)butyl]-2,3,4,4a,5,9b-hexahydro-1H-pyrido[4,3-b]indole hydrochloride], the median effective dose (ED50) is 0.032 to 0.1 mg/kg under setting [1]; 0.032 to 0.1 mg/kg under setting [2]; 0.032 to 0.1 mg/kg under setting [3]; 0.1 to 0.32 mg/kg (ip, 48 h, i.p., Part B, read-out: ED50, 48 Hrs.); 0.32 to 1 mg/kg under setting [7]; 0.1 to 0.32 mg/kg under setting [8]. In addition, the ED50 under setting [9] fell in the range of 0.1 to 0.32 mg/kg, the ED50 under setting [4] lay within 0.032 to 0.1 mg/kg, the ED50 under setting [5] is 0.032 to 0.1 mg/kg and the median effective dose (ED50) under setting [6] lay within 0.032 to 0.1 mg/kg.
With `OC(CCCN1CC[C@@H]2[C@@H](C1)c1cc(F)ccc1N2c1ccccc1F)c1ccc(F)cc1` (relative stereo) [trans-8-fluoro-5-(o-fluorophenyl)-2-[4-hydroxy-4-(p-fluorophenyl)butyl]-2,3,4,4a,5,9b-hexahydro-1H-pyrido[4,3-b]indole], the 50% effective dose (ED50) is 0.1 to 0.32 mg/kg under setting [1]; roughly 0.1 mg/kg under setting [2]; roughly 0.1 mg/kg under setting [3]; less than 1 mg/kg under setting [7]; less than 1 mg/kg under setting [8]; less than 1 mg/kg under setting [9]. The ED50 reads like this: under setting [4], less than 0.32 mg/kg; under setting [5], less than 0.32 mg/kg; under setting [6], less than 0.32 mg/kg.
As for `Cl.OC(CCCN1CC[C@@H]2[C@@H](C1)c1cc(F)ccc1N2c1ccc(F)cc1)c1ccc(F)cc1` (single isomer, unassigned) [α, trans 8-fluoro-5-(p-fluorophenyl)-2-[4-hydroxy-4(p-fluorophenyl)butyl]-2,3,4,4a,5,9b-hexahydro-1H-pyrido[4,3-b]indole hydrochloride], the “ED50, 5 Hrs.” value (5 hrs, s.c., Part C, isomers of Examples 13 and 14, hydrochloride, 300 min) is reported as 32-100 micrograms/kilograms. In addition, the “ED50, 24 Hrs.” value (24 hrs, s.c., Part C, isomers of Examples 13 and 14, hydrochloride, 1440 min) is given as 32-100 micrograms/kilograms. For the setting “48 hrs, s.c., Part D, enantiomers by synthesis of Example 21, hydrochloride, 2880 min”, the “ED50, 48 Hrs.” value is recorded as “ca. 1 mg./kg”. Also, for the setting “72 hrs, s.c., Part D, enantiomers by synthesis of Example 21, hydrochloride, 4320 min”, the “ED50, 72 Hrs.” value was greater than 10 mg/kg.
Regarding `Cl.OC(CCCN1CCC2C(C1)c1cc(F)ccc1N2c1ccc(F)cc1)c1ccc(F)cc1` (single isomer, unassigned) [β, 8-fluoro-5-(p-fluorophenyl)-2-[4-hydroxy-4-(p-fluorophenyl)butyl]-2,3,4,4a,5,9b-hexahydro-1H-pyrido[4,3-b]indole hydrochloride], the median effective dose (ED50) (sc, 1 h, s.c., Part C, isomers of Examples 13 and 14, read-out: ED50, 1 Hr.) was greater than 1 mg/kg; the median effective dose (ED50) (sc, 1 h, s.c., Part D, enantiomers by synthesis of Example 21, read-out: ED50, 1 Hr.) was greater than 10 mg/kg; the median effective dose (ED50) (sc, 5 h, s.c., Part C, isomers of Examples 13 and 14, read-out: ED50, 5 Hrs.) was greater than 1 mg/kg; the median effective dose (ED50) (sc, 5 h, s.c., Part D, enantiomers by synthesis of Example 21, read-out: ED50, 5 Hrs.) stood at 5.7 mg/kg; the ED50 (sc, 24 h, s.c., Part C, isomers of Examples 13 and 14, read-out: ED50, 24 Hrs.) is greater than 1 mg/kg; the median effective dose (ED50) (sc, 24 h, s.c., Part D, enantiomers by synthesis of Example 21, read-out: ED50, 24 Hrs.) is greater than 10 mg/kg. Besides, the 50% effective dose (ED50) is greater than 10 mg/kg (sc, 48 h, s.c., Part D, enantiomers by synthesis of Example 21, read-out: ED50, 48 Hrs.) and greater than 10 mg/kg (sc, 72 h, s.c., Part D, enantiomers by synthesis of Example 21, read-out: ED50, 72 Hrs.).
As for `CN1CCN(CC/C=C2/c3ccccc3Sc3ccc(S(=O)(=O)N(C)C)cc32)CC1` [Navane, cis-9-[3-(4-Methyl-1-piperazinyl)propylidene]-2-(dimethylsulfonamido)thioanthene, reference compound], the 50% effective dose (ED50) is 0.32 to 1 mg/kg (po, 1 h, po, Part A, read-out: ED50, 1 Hr.); greater than 10 mg/kg (po, 5 h, po, Part A, read-out: ED50, 5 Hr.); greater than 32 mg/kg (po, 24 h, po, Part A, read-out: ED50, 24 Hrs.).
Take `OC(CCCN1CCc2c(c3ccccc3n2-c2ccccc2)C1)c1ccccc1` (stereo not shown) [drawing 40 (a), reference compound]: the 50% effective dose (ED50) by setting is: under setting [1], 3.2 to 10 mg/kg; under setting [2], 3.2 to 10 mg/kg; under setting [3], greater than 10 mg/kg.
For `OC(CCCN1CCc2c(c3cc(F)ccc3n2-c2ccc(F)cc2)C1)c1ccc(F)cc1` (stereo not shown) [drawing 41 (a), 8-Fluoro-5-(p-fluorophenyl)-2-[4-(p-fluorophenyl)-4-hydroxybutyl]-1,2,3,4-tetrahydro-γ-carboline hydrochloride, reference compound], the ED50 is, setting by setting: under setting [1], 0.1 to 0.32 mg/kg; under setting [2], 0.1 to 3.2 mg/kg; under setting [3], 1 to 3.2 mg/kg; under setting [7], 1 to 3.2 mg/kg; under setting [8], 0.32 to 1 mg/kg; under setting [9], 1 to 3.2 mg/kg.
As for `O=C(CCCN1CCc2c(c3cc(F)ccc3n2-c2ccc(F)cc2)C1)c1ccc(F)cc1` [drawing 42 (a), reference compound], the 50% effective dose (ED50) is, setting by setting: under setting [1], 3.2 to 10 mg/kg; under setting [2], greater than 10 mg/kg.
Consider `OC(CCCN1CCc2c(c3cc(F)ccc3n2-c2ccccc2F)C1)c1ccc(F)cc1` (stereo not shown) [drawing 43 (a), reference compound], for which the ED50 reads like this: under setting [1], 0.32 to 1 mg/kg; under setting [2], 1 to 3.2 mg/kg; under setting [3], greater than 10 mg/kg.
